Experimental data published in PubChem BioAssay (NCI).
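Cultured in 96-well plates, cells were exposed to test compound for 48 hours across five concentrations. TGI: concentration producing complete growth inhibition.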

Assays:
Assay in all cases: DTP human tumour cell line panel, 48 h
A498 renal = system: A498 renal
A549 NSCLC = system: A549 NSCLC
CCRF-CEM leukemia = system: CCRF-CEM leukemia
HCT-116 colon = system: HCT-116 colon
HL-60(TB) leukemia = system: HL-60(TB) leukemia
HOP-62 NSCLC = system: HOP-62 NSCLC
HOP-92 NSCLC = system: HOP-92 NSCLC
HT29 colon = system: HT29 colon
IGROV1 ovarian = system: IGROV1 ovarian
KM12 colon = system: KM12 colon
KM20L2 colon = system: KM20L2 colon
M14 melanoma = system: M14 melanoma
M19-MEL melanoma = system: M19-MEL melanoma
MOLT-4 leukemia = system: MOLT-4 leukemia
NCI-H226 lung = system: NCI-H226 lung
NCI-H23 lung = system: NCI-H23 lung
NCI-H460 lung = system: NCI-H460 lung
NCI-H522 lung = system: NCI-H522 lung
OVCAR-5 ovarian = system: OVCAR-5 ovarian
OVCAR-8 ovarian = system: OVCAR-8 ovarian
RXF 393 renal = system: RXF 393 renal
RXF-631 renal = system: RXF-631 renal
SF-295 CNS = system: SF-295 CNS
SK-MEL-28 melanoma = system: SK-MEL-28 melanoma
SK-OV-3 ovarian = system: SK-OV-3 ovarian
SNB-19 CNS = system: SNB-19 CNS
SNB-78 CNS = system: SNB-78 CNS
SR leukemia = system: SR leukemia
TK-10 renal = system: TK-10 renal
U251 CNS = system: U251 CNS
UACC-257 melanoma = system: UACC-257 melanoma
UACC-62 melanoma = system: UACC-62 melanoma
UO-31 renal = system: UO-31 renal
ACHN renal = system: ACHN renal
COLO 205 colon = system: COLO 205 colon
K-562 leukemia = system: K-562 leukemia
LXFL 529 NSCLC = system: LXFL 529 NSCLC
MALME-3M melanoma = system: MALME-3M melanoma
OVCAR-3 ovarian = system: OVCAR-3 ovarian
OVCAR-4 ovarian = system: OVCAR-4 ovarian
RPMI-8226 leukemia = system: RPMI-8226 leukemia
SF-268 CNS = system: SF-268 CNS
SF-539 CNS = system: SF-539 CNS
SK-MEL-2 melanoma = system: SK-MEL-2 melanoma
SNB-75 CNS = system: SNB-75 CNS
786-0 renal = system: 786-0 renal
CAKI-1 renal = system: CAKI-1 renal
DLD-1 colon = system: DLD-1 colon
DMS 114 small cell lung = system: DMS 114 small cell lung
DMS 273 small cell lung = system: DMS 273 small cell lung
EKVX NSCLC = system: EKVX NSCLC
HCC-2998 colon = system: HCC-2998 colon
HCT-15 colon = system: HCT-15 colon
LOX IMVI melanoma = system: LOX IMVI melanoma
SK-MEL-5 melanoma = system: SK-MEL-5 melanoma
SN12C renal = system: SN12C renal
SW-620 colon = system: SW-620 colon
XF 498 CNS = system: XF 498 CNS

Molecule `CCNC(CCCC(NCC)P(=O)(O)O)P(=O)(O)O` (stereo not drawn) has a TGI (A498 renal) of over 100 µM, a TGI (A549 NSCLC) of over 100 µM and a TGI (CCRF-CEM leukemia) of over 100 µM. It also gave a TGI (HCT-116 colon) of over 100 µM, a TGI (HL-60(TB) leukemia) of over 100 µM and a TGI (HOP-62 NSCLC) of over 100 µM. It also gave a TGI (HOP-92 NSCLC) of over 100 µM, a TGI (HT29 colon) of over 100 µM and a TGI (IGROV1 ovarian) of over 100 µM. It also gave a TGI (KM12 colon) of over 100 µM, a TGI (KM20L2 colon) of over 100 µM and a TGI (M14 melanoma) of over 100 µM. For the same molecule, the TGI (M19-MEL melanoma) was over 100 µM, the TGI (MOLT-4 leukemia) was over 100 µM and the TGI (NCI-H226 lung) was over 100 µM. It also gave a TGI (NCI-H23 lung) of over 100 µM, a TGI (NCI-H460 lung) of over 100 µM and a TGI (NCI-H522 lung) of over 100 µM. For the same molecule, the TGI (OVCAR-5 ovarian) was over 100 µM, the TGI (OVCAR-8 ovarian) was over 100 µM and the TGI (RXF 393 renal) was over 100 µM. It also gave a TGI (RXF-631 renal) of over 100 µM, a TGI (SF-295 CNS) of over 100 µM and a TGI (SK-MEL-28 melanoma) of over 100 µM. It also gave a TGI (SK-OV-3 ovarian) of over 100 µM, a TGI (SNB-19 CNS) of over 100 µM and a TGI (SNB-78 CNS) of over 100 µM. The TGI (SR leukemia) was over 100 µM, the TGI (TK-10 renal) was over 100 µM and the TGI (U251 CNS) was over 100 µM. For the same molecule, the TGI (UACC-257 melanoma) was over 100 µM, the TGI (UACC-62 melanoma) was over 100 µM and the TGI (UO-31 renal) was over 100 µM.

`COC(=O)C(Cc1ccccc1)N=Cc1c(O)c(O)c(C(C)C)c2cc(C)c(-c3c(C)cc4c(C(C)C)c(O)c(O)c(C=NC(Cc5ccccc5)C(=O)OC)c4c3O)c(O)c12` (stereo not drawn) showed a TGI (ACHN renal) of 74.3 µM, a TGI (CCRF-CEM leukemia) of 38.5 µM and a TGI (COLO 205 colon) of 92.9 µM. For the same molecule, the TGI (HL-60(TB) leukemia) was 59 µM, the TGI (HOP-62 NSCLC) was over 100 µM and the TGI (HOP-92 NSCLC) was 77 µM. For the same molecule, the TGI (HT29 colon) was 32.5 µM, the TGI (IGROV1 ovarian) was over 100 µM and the TGI (K-562 leukemia) was over 100 µM. The TGI (KM12 colon) was 39.7 µM, the TGI (KM20L2 colon) was 55.3 µM and the TGI (LXFL 529 NSCLC) was 38.5 µM. It also gave a TGI (M19-MEL melanoma) of over 100 µM, a TGI (MALME-3M melanoma) of over 100 µM and a TGI (MOLT-4 leukemia) of 11.6 µM. For the same molecule, the TGI (NCI-H23 lung) was 74.6 µM, the TGI (NCI-H460 lung) was 51.4 µM and the TGI (NCI-H522 lung) was 54.7 µM. The TGI (OVCAR-3 ovarian) was 52.1 µM, the TGI (OVCAR-4 ovarian) was 64.5 µM and the TGI (OVCAR-5 ovarian) was 49.3 µM. For the same molecule, the TGI (RPMI-8226 leukemia) was 92.3 µM, the TGI (RXF 393 renal) was 35 µM and the TGI (SF-268 CNS) was over 100 µM. It also gave a TGI (SF-295 CNS) of 35.6 µM, a TGI (SF-539 CNS) of 43.6 µM and a TGI (SK-MEL-2 melanoma) of 44 µM. It also gave a TGI (SK-MEL-28 melanoma) of over 100 µM, a TGI (SK-OV-3 ovarian) of 81 µM and a TGI (SNB-19 CNS) of over 100 µM. For the same molecule, the TGI (SNB-75 CNS) was over 100 µM, the TGI (SNB-78 CNS) was 29.2 µM and the TGI (SR leukemia) was 10.1 µM. The TGI (U251 CNS) was 55.2 µM, the TGI (UACC-257 melanoma) was 63 µM and the TGI (UACC-62 melanoma) was 55.9 µM. It also gave a TGI (UO-31 renal) of 80.7 µM.

For `Cc1ccc(NC(=O)CC2C(=O)Nc3ccccc3S2(=O)=O)cc1C` (stereo not drawn), the TGI (786-0 renal) was over 100 µM, the TGI (A498 renal) was over 100 µM and the TGI (A549 NSCLC) was over 100 µM. For the same molecule, the TGI (ACHN renal) was over 100 µM, the TGI (CAKI-1 renal) was over 100 µM and the TGI (CCRF-CEM leukemia) was over 100 µM. The TGI (DLD-1 colon) was over 100 µM, the TGI (DMS 114 small cell lung) was over 100 µM and the TGI (DMS 273 small cell lung) was over 100 µM. For the same molecule, the TGI (EKVX NSCLC) was over 100 µM, the TGI (HCC-2998 colon) was over 100 µM and the TGI (HCT-116 colon) was over 100 µM. For the same molecule, the TGI (HCT-15 colon) was over 100 µM, the TGI (HL-60(TB) leukemia) was over 100 µM and the TGI (HOP-92 NSCLC) was over 100 µM. It also gave a TGI (HT29 colon) of over 100 µM, a TGI (IGROV1 ovarian) of over 100 µM and a TGI (K-562 leukemia) of over 100 µM. For the same molecule, the TGI (KM20L2 colon) was over 100 µM, the TGI (LOX IMVI melanoma) was over 100 µM and the TGI (LXFL 529 NSCLC) was over 100 µM. The TGI (M14 melanoma) was over 100 µM, the TGI (M19-MEL melanoma) was over 100 µM and the TGI (MALME-3M melanoma) was over 100 µM. For the same molecule, the TGI (MOLT-4 leukemia) was over 100 µM, the TGI (NCI-H226 lung) was over 100 µM and the TGI (NCI-H23 lung) was over 100 µM. It also gave a TGI (NCI-H460 lung) of over 100 µM, a TGI (NCI-H522 lung) of over 100 µM and a TGI (OVCAR-3 ovarian) of over 100 µM. The TGI (OVCAR-4 ovarian) was over 100 µM, the TGI (OVCAR-5 ovarian) was over 100 µM and the TGI (OVCAR-8 ovarian) was over 100 µM. For the same molecule, the TGI (RPMI-8226 leukemia) was over 100 µM, the TGI (RXF 393 renal) was over 100 µM and the TGI (RXF-631 renal) was over 100 µM. For the same molecule, the TGI (SF-295 CNS) was over 100 µM, the TGI (SF-539 CNS) was over 100 µM and the TGI (SK-MEL-2 melanoma) was over 100 µM. The TGI (SK-MEL-28 melanoma) was over 100 µM, the TGI (SK-MEL-5 melanoma) was over 100 µM and the TGI (SN12C renal) was over 100 µM. It also gave a TGI (SNB-19 CNS) of over 100 µM, a TGI (SNB-75 CNS) of over 100 µM and a TGI (SNB-78 CNS) of over 100 µM. It also gave a TGI (SR leukemia) of over 100 µM, a TGI (SW-620 colon) of over 100 µM and a TGI (TK-10 renal) of over 100 µM. For the same molecule, the TGI (U251 CNS) was over 100 µM, the TGI (UACC-257 melanoma) was over 100 µM and the TGI (UACC-62 melanoma) was over 100 µM. The TGI (UO-31 renal) was over 100 µM and the TGI (XF 498 CNS) was over 100 µM.
